pEC50: −log10 of the molar value.
Key:
[1] = molecular target: T1, hCX3CR1 (Homo sapiens, UniProt P49238); assay: ChAMPion assay (CHO ChAMPion/CX3CR1 K1.6, cAMP/CNG channel, photoprotein luminescence); type: cell-based; design: expressed in transfected cells; stably expresses a Ca2+ sensitive photo-protein; settings: ChAMPion assay, CHO ChAMPion/CX3CR1 K1.6, Forskolin 3 μM; read-out: hCX3CR1 agonism EC50
T1 sequence (P49238 1-355): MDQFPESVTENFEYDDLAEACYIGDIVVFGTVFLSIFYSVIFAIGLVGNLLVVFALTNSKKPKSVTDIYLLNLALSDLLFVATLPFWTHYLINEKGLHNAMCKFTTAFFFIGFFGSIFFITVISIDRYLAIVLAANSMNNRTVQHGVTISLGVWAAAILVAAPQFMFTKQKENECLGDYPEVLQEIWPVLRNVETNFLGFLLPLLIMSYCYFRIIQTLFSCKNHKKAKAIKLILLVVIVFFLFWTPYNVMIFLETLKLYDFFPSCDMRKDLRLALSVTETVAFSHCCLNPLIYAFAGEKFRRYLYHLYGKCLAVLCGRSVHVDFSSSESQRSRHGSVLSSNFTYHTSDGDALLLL

[2] = molecular target: T1, hCX3CR1; assay: Suchi5 assay (HEK/NatClytin/CNG/Suchi5 transiently transfected hCX3CR1, Fluo-8 Ca2+ readout); type: cell-based; design: expressed in transfected cells; stably expresses a Ca2+ sensitive photo-protein; settings: Suchi5 assay, HEK/NatClytin/CNG/Suchi5 transfected with hCX3CR1; read-out: hCX3CR1 agonism EC50
In short: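 HEK/NatClytin/CNG cells overexpressing Gαiq chimera Suchi5, transiently transfected with hCX3CR1, seeded 24 h before assay. Cells loaded 1 h at RT with 0.5X Fluo-8 in Tyrode buffer (pH 7.4); compounds injected on FLIPR and Ca2+ kinetic fluorescence followed for 90 s. Agonist: recombinant human fractalkine (CX3CL1).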

Row | Structure (SMILES) | pEC50 [1] | pEC50 [2]
1 | CN(C)CC1(CNC(=O)c2cc3c(s2)CCCCCC3)CCC1 [Example 23, N-[[1-[(dimethylamino)methyl]cyclobutyl]methyl]-4,5,6,7,8,9-hexahydrocycloocta[b]thiophene-2-carboxamide] | 5.85 | 5.19
2 | O=C(NCC1(CN2CCCC2)CC(O)C1)c1cc2c(s1)CCCCCC2 (stereo not shown) [Example 32, N-[[3-hydroxy-1-(pyrrolidin-1-ylmethyl)cyclobutyl]methyl]-4,5,6,7,8,9-hexahydrocycloocta[b]thiophene-2-carboxamide] | 6.19 | 5.24
3 | CN(C)CC(C)(C)CNC(=O)c1cc2c(s1)CCCCCC2 [Example 70, N-[3-(dimethylamino)-2,2-dimethylpropyl]-4,5,6,7,8,9-hexahydrocycloocta[b]thiophene-2-carboxamide] | 5.51 | 5.03
4 | CN(C)CC1(CNC(=O)c2cc3c(s2)CCCCCC3)CCCC1 [Example 2, N-[[1-[(dimethylamino)methyl]cyclopentyl]methyl]-4,5,6,7,8,9-hexahydrocycloocta[b]thiophene-2-carboxamide] | 5.89 | 5.27
5 | O=C(NCC1(CN2CCC(O)C2)CCCC1)c1cc2c(s1)CCCCCC2 (racemic) [Example 25, N-[[1-[(3-hydroxypyrrolidin-1-yl)methyl]cyclopentyl]methyl]-4,5,6,7,8,9-hexahydrocycloocta[b]thiophene-2-carboxamide] | 6.15 | 4.93
6 | CN(CCO)CC1(CNC(=O)c2cc3c(s2)CCCCCC3)CCC1 [Example 30, N-[[1-[[2-hydroxyethyl(methyl)amino]methyl]cyclobutyl]methyl]-4,5,6,7,8,9-hexahydrocycloocta[b]thiophene-2-carboxamide] | 6.22 | 4.44
7 | O=C(NCC1(CN2CCCC2)CCCC1)c1cc2c(s1)CCCCCC2 [Example 5, N-[[1-(pyrrolidin-1-ylmethyl)cyclopentyl]methyl]-4,5,6,7,8,9-hexahydrocycloocta[b]thiophene-2-carboxamide] | 5.74 | 4.89
8 | CN(C)CC1(CNC(=O)c2cc3c(s2)CCCCCC3)CC(O)C1 (stereo not shown) [Example 31, N-[[1-[(dimethylamino)methyl]-3-hydroxycyclobutyl]methyl]-4,5,6,7,8,9-hexahydrocycloocta[b]thiophene-2-carboxamide] | 6.05 | 5.33
9 | O=C(NCC1(CN2CCCC2)CCC1)c1cc2c(s1)CCCCCC2 [Example 21, N-[[1-(pyrrolidin-1-ylmethyl)cyclobutyl]methyl]-4,5,6,7,8,9-hexahydrocycloocta[b]thiophene-2-carboxamide] | 5.36 | 5.33
10 | CC(C)(CNC(=O)c1cc2c(s1)CCCCCC2)CN1CCCC1 [Example 1, N-(2,2-dimethyl-3-pyrrolidin-1-ylpropyl)-4,5,6,7,8,9-hexahydrocycloocta[b]thiophene-2-carboxamide] | 5.68 | 4.86
11 | O=C(NCC1(CN2CCCCC2)CCCC1)c1cc2c(s1)CCCCCC2 [Example 15, N-[[1-(piperidin-1-ylmethyl)cyclopentyl]methyl]-4,5,6,7,8,9-hexahydrocycloocta[b]thiophene-2-carboxamide] | 5.57 | 5.26
12 | O=C(NCC1(CN2CCC(O)CC2)CCCC1)c1cc2c(s1)CCCCCC2 [Example 28, N-[[1-[(4-hydroxypiperidin-1-yl)methyl]cyclopentyl]methyl]-4,5,6,7,8,9-hexahydrocycloocta[b]thiophene-2-carboxamide] | 6.10 | 5.17
13 | CC(C)(CNC(=O)c1cc2c(s1)CCCCCC2)CN1CCCCC1 [Example 13, N-(2,2-dimethyl-3-piperidin-1-ylpropyl)-4,5,6,7,8,9-hexahydrocycloocta[b]thiophene-2-carboxamide] | 5.66 | 5.02
14 | O=C(NCC1(CN2CCCC(O)C2)CCCC1)c1cc2c(s1)CCCCCC2 (stereo not shown) [Example 27, N-[[1-[(3-hydroxypiperidin-1-yl)methyl]cyclopentyl]methyl]-4,5,6,7,8,9-hexahydrocycloocta[b]thiophene-2-carboxamide] | 4.88 | 5.12

Source: US12258337B2, “Bicyclic CX3CR1 receptor agonists” (Board of Regents, The University of Texas System, priority 2019, dated 2025)
